Test results: PubChem BioAssay AID1259408 (Genetic Toxicology Data Bank (GENE-TOX), 2018)
Activity calls are given as the source filed them. How the calls were made is not given here.

Test system: GENE-TOX genotoxicity assays, various organisms and cells
Assay: GENE-TOX mutagenicity studies
Details: for call: Assay Type: In vivo carcinogenicity studies
[1] = Species/Cell Type: Mammalian polychromatic erythrocytes, Assay Type: Micronucleus test, chromosome aberrations, Assay Code: MNT+, Evaluation Type: Evaluation B (Post-1980)
[2] = Species/Cell Type: Salmonella typhimurium (one or more of the five standard strains: TA98, TA100, TA1535, TA1537, and TA1538), Assay Type: Histidine reverse gene mutation, Ames assay, Assay Code: SAL+, Evaluation Type: Evaluation A (Pre-1980)
[3] = Species/Cell Type: Escherichia coli WP2, Assay Type: Tryptophan reverse gene mutation, Assay Code: WP2+, Evaluation Type: Evaluation A (Pre-1980)
[4] = Species/Cell Type: Escherichia coli polA (W3119 vs P3478), Assay Type: Rec-assay, DNA effects (bacterial DNA repair), Assay Code: RE1+, Evaluation Type: Evaluation A (Pre-1980)
[5] = Species/Cell Type: Nonhuman, Assay Code: CCG+, Evaluation Type: Evaluation A (Pre-1980)
[6] = Species/Cell Type: Human lymphocytes, Assay Type: Sister-chromatid exchange (SCE) in vitro, Assay Code: SCL+D, Dose Response: With dose response, Evaluation Type: Evaluation B (Post-1980)
[7] = Species/Cell Type: Human, Assay Type: Sister-chromatid exchange (SCE) in vitro, Assay Code: SC1+D, Dose Response: With dose response, Evaluation Type: Evaluation B (Post-1980)
[8] = Species/Cell Type: Mammalian polychromatic erythrocytes, Assay Type: Micronucleus test, chromosome aberrations, Assay Code: MNTT, Evaluation Type: Evaluation B (Post-1980)
[9] = Species/Cell Type: Salmonella typhimurium (one or more of the five standard strains: TA98, TA100, TA1535, TA1537, and TA1538), Assay Type: Histidine reverse gene mutation, Ames assay, Assay Code: SALT, Evaluation Type: Evaluation A (Pre-1980)
[10] = Species/Cell Type: Drosophila melanogaster, Assay Type: Sex-linked recessive lethal gene mutation, Assay Code: SRLT, Evaluation Type: Evaluation A (Pre-1980)
[11] = Species/Cell Type: Bacillus subtilis (H17 vs M45), Assay Type: Rec-assay, spot test, DNA effects (bacterial DNA repair), Assay Code: REW+, Evaluation Type: Evaluation A (Pre-1980)
[12] = Species/Cell Type: Nonhuman, Assay Type: Sister-chromatid exchange (SCE) in vitro, Assay Code: SC2T, Evaluation Type: Evaluation B (Post-1980)
[13] = Species/Cell Type: Syrian hamster embryo (SHE) cells, Assay Type: Cell transformation, clonal assay, Assay Code: CTC-, Evaluation Type: Evaluation A (Pre-1980)
[14] = Species/Cell Type: Mouse, Sex: Male, Assay Type: Sperm morphology, Assay Code: SPI-, Evaluation Type: Evaluation A (Pre-1980)
[15] = Species/Cell Type: Human, Assay Type: Sister-chromatid exchange (SCE) in vitro, Assay Code: SC1T, Evaluation Type: Evaluation B (Post-1980)
[16] = Species/Cell Type: Salmonella typhimurium (one or more of the five standard strains: TA98, TA100, TA1535, TA1537, and TA1538), Assay Type: Histidine reverse gene mutation, Ames assay, Assay Code: SAL+*, Activation: With metabolic activation, Evaluation Type: Evaluation A (Pre-1980)

Which results are given for `CC[C@]1(O)C[C@@H]2CN(CCc3c([nH]c4ccccc34)[C@@](C(=O)OC)(c3cc4c(cc3OC)N(C)[C@H]3[C@@](O)(C(=O)OC)[C@H](OC(C)=O)[C@]5(CC)C=CCN6CC[C@]43[C@@H]65)C2)C1`?
mutagenic call (Species/Cell Type: Mammalian polychromatic erythrocytes, Assay Type: Micronucleus test, chromosome aberrations, Assay Code: MNT+, Evaluation Type: Evaluation A (Pre-1980)): active; positive; mutagenic call [1]: active; positive; mutagenic call (Species/Cell Type: Mouse, Sex: Male, Assay Type: Sperm morphology, Assay Code: SPI+, Evaluation Type: Evaluation A (Pre-1980)): active; positive; mutagenic call (Species/Cell Type: Neurospora crassa, Assay Type: Aneuploidy, chromosome aberrations, Assay Code: NEN-, Evaluation Type: Evaluation A (Pre-1980)): inactive; negative

Which mutagenic call (Species/Cell Type: Allium cepa, Assay Type: Chromosome aberrations, Assay Code: ALC+, Evaluation Type: Evaluation A (Pre-1980)) does the source give for `Oc1ccc(O)c(O)c1` here?
The mutagenic call was “active; positive”.

Which results are given for `N#CC(Cl)Cl`?
mutagenic call (Species/Cell Type: Saccharomyces cerevisiae, Assay Type: Mitotic recombination or gene conversion, Assay Code: YEH+, Evaluation Type: Evaluation A (Pre-1980)): active; positive; mutagenic call [2]: active; positive

For `CCOP(=O)(N=C1SCC(C)S1)OCC` (stereo not given), which mutagenic call (Species/Cell Type: Hordeum vulgare (barley), Assay Type: Chromosome aberrations, Assay Code: HOC+D, Dose Response: With dose response, Evaluation Type: Evaluation A (Pre-1980)) is on record?
The mutagenic call was “active; positive”.

Which results are given for `[N-]=[N+]=CC(=O)OC[C@H](N)C(=O)O`?
mutagenic call [3]: active; positive; mutagenic call [4]: active; positive; call [5]: active; positive; mutagenic call (Species/Cell Type: Nonhuman, Assay Type: Sister-chromatid exchange (SCE) in vitro, Assay Code: SC2+D, Dose Response: With dose response, Evaluation Type: Evaluation B (Post-1980)): active; positive; mutagenic call [2]: active; positive; mutagenic call (Species/Cell Type: Syrian hamster embryo (SHE) cells, Assay Type: Cell transformation, clonal assay, Assay Code: CTC+, Evaluation Type: Evaluation A (Pre-1980)): active; positive

Which results are given for `O=[N+]([O-])c1ccc(C2CO2)cc1` (stereo not given)?
mutagenic call [6]: active; positive; mutagenic call [7]: active; positive

With `CC(Cl)CCl` (stereo not given) as the compound, how does the mutagenic call [2] read?
Its mutagenic call is “active; positive”.

For `Oc1c(Cl)cc(Cl)c(Cl)c1Cc1c(O)c(Cl)cc(Cl)c1Cl`, which mutagenic call [8] is on record?
The mutagenic call was “no conclusion”.

With `COc1ccc2c3c(n(CC=C(C)C)c2c1)[C@H](C=C(C)C)N1C(=O)[C@@H]2CCCN2C(=O)[C@]1(O)[C@H]3O` as the compound, how does the mutagenic call [9] read?
The mutagenic call was “no conclusion”.

How did the mutagenic call [10] turn out when `O=c1[nH]cc[nH]1` was run?
The mutagenic call was “no conclusion”.

Which mutagenic call (Species/Cell Type: Tradescantia species, Assay Type: Gene mutation, Assay Code: TRM+D, Dose Response: With dose response, Evaluation Type: Evaluation A (Pre-1980)) does the source give for `C=CBr` here?
The mutagenic call was “active; positive”.

How did the mutagenic call (Species/Cell Type: Vicia faba, Assay Type: Chromosome aberrations, Assay Code: VIC+, Evaluation Type: Evaluation A (Pre-1980)) turn out when `Nc1ncnc2n[nH]nc12` was run?
The mutagenic call was “active; positive”.

With `C1C2OC2C2OC12` (stereo not given) as the compound, how does the mutagenic call (Species/Cell Type: Neurospora crassa, Assay Type: Forward gene mutation, Assay Code: NEF+, Evaluation Type: Evaluation A (Pre-1980)) read?
Its mutagenic call is “active; positive”.

With `[Cl][Pt-2]([Cl])([Cl])([Cl])([Cl])[Cl]` as the compound, how does the mutagenic call [11] read?
Its mutagenic call is “active; positive”.

Which mutagenic call [3] does the source give for `CN(C)Nc1nc(-c2ccc([N+](=O)[O-])o2)cs1` here?
The mutagenic call was “active; positive”.

What about the mutagenic call (Species/Cell Type: Escherichia coli WP2 UVRA, Assay Type: Tryptophan reverse gene mutation, Assay Code: WPU-, Evaluation Type: Evaluation A (Pre-1980)) of the same compound?
The mutagenic call was “inactive; negative”.

What about the mutagenic call [2] of the same compound?
Its mutagenic call is “active; positive”.

For `Nc1c2ccccc2nc2ccccc12`, which mutagenic call (Species/Cell Type: Human diploid fibroblasts, Assay Type: Unscheduled DNA synthesis (UDS) in vitro, DNA effects, Assay Code: UDH-, Evaluation Type: Evaluation A (Pre-1980)) is on record?
Its mutagenic call is “inactive; negative”.

What about the mutagenic call (Species/Cell Type: Nonhuman, Assay Type: Sister-chromatid exchange (SCE) in vitro, Assay Code: SC2+, Evaluation Type: Evaluation B (Post-1980)) of the same compound?
The mutagenic call was “active; positive”.

And the mutagenic call [2]?
Its mutagenic call is “active; positive”.

Which mutagenic call [8] does the source give for `N#Cc1cc(I)c(O)c([N+](=O)[O-])c1` here?
The mutagenic call was “no conclusion”.

Which results are given for `CC1CCOS(=O)(=O)O1` (stereo not given)?
mutagenic call [2]: active; positive; mutagenic call (Species/Cell Type: Salmonella typhimurium, Assay Type: Forward and reverse gene mutation, host-mediated assay, Assay Code: HMA+, Evaluation Type: Evaluation A (Pre-1980)): active; positive

For `CCCCCCCCCCCCCC(=O)N(C)N=O`, which mutagenic call (Species/Cell Type: Saccharomyces cerevisiae, Assay Type: Reverse gene mutation, Assay Code: YER+, Evaluation Type: Evaluation A (Pre-1980)) is on record?
The mutagenic call was “active; positive”.

How did the mutagenic call [12] turn out when `C[S-].C[S-].N#[O+].N#[O+].N#[O+].N#[O+].[Fe].[Fe]` was run?
The mutagenic call was “no conclusion”.

`CC(C)C(Br)Br` was tested. Which mutagenic call [4] did it give?
The mutagenic call was “active; positive”.

What does the source list for `O=[N+]([O-])c1ccc(-c2cscn2)o1`?
mutagenic call [11]: active; positive; call (Species/Cell Type: Nonhuman, Assay Code: CCG+L, Evaluation Type: Evaluation A (Pre-1980)): active; positive; mutagenic call [2]: active; positive; mutagenic call [13]: inactive; negative

With `CCC1(c2ccccc2)C(=O)NC(=O)NC1=O` as the compound, how does the mutagenic call (Species/Cell Type: Human lymphocytes, Assay Type: Sister-chromatid exchange (SCE) in vivo, Assay Code: SCY+, Evaluation Type: Evaluation B (Post-1980)) read?
The mutagenic call was “active; positive”.

And the mutagenic call [1]?
Its mutagenic call is “active; positive”.

What about the mutagenic call (Species/Cell Type: Mammalian polychromatic erythrocytes, Assay Type: Micronucleus test, chromosome aberrations, Assay Code: MNTT, Evaluation Type: Evaluation A (Pre-1980)) of the same compound?
The mutagenic call was “no conclusion”.

What about the mutagenic call [14] of the same compound?
Its mutagenic call is “inactive; negative”.

What about the mutagenic call [13] of the same compound?
Its mutagenic call is “inactive; negative”.

`CNC(=O)Nc1nc(-c2ccccc2)cs1` was tested. Which mutagenic call (Species/Cell Type: Salmonella typhimurium, Serratia marcesens, Assay Type: Forward and reverse gene mutation, host-mediated assay, Assay Code: HM2+, Evaluation Type: Evaluation A (Pre-1980)) did it give?
Its mutagenic call is “active; positive”.

With `Nc1ccccc1Cl` as the compound, how does the mutagenic call [4] read?
Its mutagenic call is “active; positive”.

And the mutagenic call [14]?
The mutagenic call was “inactive; negative”.

And the mutagenic call (Species/Cell Type: Saccharomyces cerevisiae, Assay Type: Mitotic recombination or gene conversion, Assay Code: YEH-, Evaluation Type: Evaluation A (Pre-1980))?
Its mutagenic call is “inactive; negative”.

What about the mutagenic call [13] of the same compound?
The mutagenic call was “inactive; negative”.

For `NC(=O)C(=Cc1ccc([N+](=O)[O-])o1)c1ccccc1`, which mutagenic call [2] is on record?
The mutagenic call was “active; positive”.

How did the mutagenic call [15] turn out when `Cc1c(N(C)CS(=O)(=O)O)c(=O)n(-c2ccccc2)n1C` was run?
Its mutagenic call is “no conclusion”.

How did the mutagenic call [2] turn out when `C=C1C(=O)OC2CC(C)C3CC(OCC)OC(OCC)C3(C)CC12` (stereo not given) was run?
The mutagenic call was “active; positive”.

Which mutagenic call (Species/Cell Type: Saccharomyces cerevisiae, Assay Type: Reverse gene mutation, Assay Code: YERT, Evaluation Type: Evaluation A (Pre-1980)) does the source give for `CCOC(=O)COc1ccc(Br)cc1CSC(=N)N` here?
The mutagenic call was “no conclusion”.

For `CC[C@H](C)[C@H](NC(=O)[C@@H](NC(=O)N[C@@H](Cc1ccccc1)C(=O)O)C1CCN=C(N)N1)C(=O)N[C@H](C=O)Cc1ccccc1` (stereo not given in full) (tested in a mixture with another compound), which mutagenic call [15] is on record?
The mutagenic call was “no conclusion”.

With `Cc1nc(N)cc2[nH]c3ccccc3c12` as the compound, how does the mutagenic call (Species/Cell Type: Chinese hamster ovary (CHO) cells, Assay Type: Forward gene mutation at the HPRT locus, Assay Code: CHO+*, Activation: With metabolic activation, Evaluation Type: Evaluation B (Post-1980)) read?
The mutagenic call was “active; positive”.

And the mutagenic call [6]?
The mutagenic call was “active; positive”.

What about the mutagenic call [7] of the same compound?
The mutagenic call was “active; positive”.

What about the call [5] of the same compound?
The call was “active; positive”.

What about the mutagenic call (Species/Cell Type: Nonhuman, Assay Type: Sister-chromatid exchange (SCE) in vitro, Assay Code: SC2+D*, Activation: With metabolic activation, Dose Response: With dose response, Evaluation Type: Evaluation B (Post-1980)) of the same compound?
Its mutagenic call is “active; positive”.

What about the mutagenic call (Species/Cell Type: Nonhuman, Assay Type: Sister-chromatid exchange (SCE) in vivo, Assay Code: SC3+D, Dose Response: With dose response, Evaluation Type: Evaluation B (Post-1980)) of the same compound?
Its mutagenic call is “active; positive”.

And the mutagenic call [16]?
The mutagenic call was “active; positive”.

How did the mutagenic call (Species/Cell Type: Chinese hamster lung (V79) cells, Assay Type: Forward gene mutation at the HPRT or ouabain locus, Assay Code: V79-*, Activation: With metabolic activation, Evaluation Type: Evaluation A (Pre-1980)) turn out when `Oc1ccc2c(c1)cc1ccc3cccc4ccc2c1c34` was run?
The mutagenic call was “inactive; negative”.

And the call (Species/Cell Type: Nonhuman, Assay Code: CCGT, Evaluation Type: Evaluation A (Pre-1980))?
Its call is “no conclusion”.

And the mutagenic call [9]?
Its mutagenic call is “no conclusion”.

`Cc1c[nH]c(=O)[nH]c1=O` was tested. Which mutagenic call [10] did it give?
Its mutagenic call is “no conclusion”.

And the mutagenic call [12]?
The mutagenic call was “no conclusion”.

With `O=[N+]([O-])c1ccc2[nH]ncc2c1` as the compound, how does the mutagenic call [2] read?
The mutagenic call was “active; positive”.

How did the mutagenic call (Species/Cell Type: Bacillus subtilis (H17 vs M45), Assay Type: Rec-assay, spot test, DNA effects (bacterial DNA repair), Assay Code: REW-, Evaluation Type: Evaluation A (Pre-1980)) turn out when `[Cl][Bi]([Cl])[Cl]` was run?
The mutagenic call was “inactive; negative”.

How did the mutagenic call [16] turn out when `COc1cc2c3c(cc(C)c2c2ccccc12)C(=O)CC3` was run?
The mutagenic call was “active; positive”.
